# Assay results reported in article PMC6962389, “Somatostatin receptor mediated targeting of acute myeloid leukemia by photodynamic metal complexes for light induced apoptosis” (Scientific Reports, 2020).
# Like-named read-outs stand apart in the source and are kept apart here.
# What was measured:
# Format in all cases: cell-based, human
# [1] = tested on: HL60 cells; assay: Determination of the IC50 in HL60 cells (trypan blue exclusion, light/dark); settings: 10–100 µM
# Procedure: Figure 1 Uptake and IC50 studies of RU complex: confocal images of OCI-AML3 cells incubated with RU-SST (50 μm) (A) and RU-Alkyne control (RU-Alk) (100μm) (B) for 4 hrs. The laser intensity was measured for alexaflour (430 nm). Uptake characteristics with values of the integrated intensity (a.u.) per cell (C). Bar graphs indicate the average integrated intensity per cell in both experimental arms. Cells analysed for RU-SST (n = 45) and RU-Alk (n = 44). Data are represented as mean ± SEM. (D) IC50 was calculated in HL60 AML cell lines. Percent cell survival was measured by trypan blue exclusion after 4 h incubation with RU-Alk (control), RU-SST (irradiated) compared to RU-SST in the absence of light (dark RU). Experiments performed for dark RU-SST (n = 6); RU-Alk (n = 3), for RU-SST (n = 3). Data are represented as mean ± SEM. […]
# phenylalanine as an internal standard (Int. std.) was added to remove large proteins and the solution was centrifuged at […] for 30 min at 0 °C. […] The amount of RU-SST in each sample was determined as a ratio of the integration of the mass chromatogram of RU-SST to the int. std. […]
# For this purpose, we chose a high SSTR2 expressing cell line, HL60 2 . […] The cell viability was quantified by trypan blue exclusion. IC50 values were calculated using R-statistical package. […]
# [2] = tested on: OCI-AML3 cells; assay: CFC assay (clonogenic growth in methylcellulose), OCI-AML3; settings: unconjugated control, 4 h incubation, day 14
# Procedure: (§1) To evaluate the toxicity of the bioconjugate on clonogenic progenitor cells, AML cell lines as well primary human cells were incubated with the compound for 4 hours. Subsequently, cells were washed and cell counts were determined via trypan blue exclusion. Colony forming cell unit (CFC) assays were performed as described previously. In all cases cell numbers placed in methylcellulose were calculated according to the initial cell number at the start of the experiment, not taking into account any cell loss during the incubation time. 1000 cells (OCI-AML3 and HL60) and 500 cells (THP1) were plated per dish (methocult H4330). For primary patient samples, 10,000 cells were plated per dish in methylcellulose H4330 (Stem Cell Technologies, Vancouver, BC, Canada) and supplemented with cytokines. For the CD34^+ enriched CB cells, 300 cells were plated per dish in methocult H4434 (Stem Cell Technologies, Vancouver, BC, Canada). Each experiment was performed in duplicates and values mentioned are Mean ± SEM.
# We could detect a significant decrease in colony growth in the OCI AML3 cell line with a 92% reduction of colony growth when the cells were incubated with RU-SST and exposed to light compared to the cells treated with RU-SST and not exposed to light (Fig. 2A).
# Significance was calculated using the Mann-Whitney test (** < 0.01). […]
# [3] = tested on: primary AML patient samples (clonogenic progenitor cells); assay: CFC assay on primary AML patient samples; set-up: average reduction in CFC numbers, with exposure to light / % reduction of CFC: concentration or dose not given beside the values; settings: for CFC/10^4 cells: 4 h incubation, day 14
# Source text: Mononuclear cells were isolated from bone marrow (BM) or peripheral blood (PB) from patients with primary diagnosed AML, analyzed for their SSTR2 expression (n = 13) and cultured with the RU-SST bioconjugate to test the toxicity of the compound (n = 6). All patient samples were investigated by cytomorphological, cytogenetic and molecular analyses after written informed consent as described. Diagnosis was made according to the French-American-British criteria and the World Health Organization classification (Table 1)[11],[12]. The study was approved by the ethic committee of the University of Ulm. in accordance with the ethical principles of the declaration of Helsinki (http://www.wma.net/en/30publications/10policies/b3/index.html). Leukemic cells were thawed and kept in culture with culture conditions as mentioned previously.
# as §1
# [4] = tested on: CD34+ enriched CB cells; assay: CFC assay on CD34+ enriched cord blood cells; settings: unconjugated RU-Alkyne; ±4.88% SEM; n = 6 CB samples
# Procedure: Cells from cord blood (CB) were enriched for CD34^+ using the human CD34 Micro Bead Kit ultrapure (Miltenyi Biotec, Auburn, CA, USA) according to the manufacturer instructions.
# To evaluate the toxicity of the bioconjugate on clonogenic progenitor cells, AML cell lines as well primary human cells were incubated with the compound for 4 hours. Subsequently, cells were washed and cell counts were determined via trypan blue exclusion. Colony forming cell unit (CFC) assays were performed as described previously. In all cases cell numbers placed in methylcellulose were calculated according to the initial cell number at the start of the experiment, not taking into account any cell loss during the incubation time. 1000 cells (OCI-AML3 and HL60) and 500 cells (THP1) were plated per dish (methocult H4330). […]
# To evaluate, whether the effect of the compound was selective for AML stem and progenitor cells, we analysed the toxicity of the compound for CD34^+ enriched CB cells (n = 6). […]
# Figure 3 Effect of RU-complexes on clonogenicity of normal CD34^+ cells: cells from […] CD34^+ enriched cord blood (CB) samples (n = 6) were tested for the effect of both RUSST and RU-Alkyne compounds. […] Percent reduction was determined based on the colony numbers generated from CB cells treated with RU-SST and exposed to light compared to dark RU-SST. […] Significance calculated by Mann-Whitney test ** < 0.01.
smiles,measurement,setting,value
C#Cc1ccnc(-c2ccccn2)c1.[Cl-].[Cl-].[Ru+2].c1ccc(-c2ccccn2)nc1.c1ccc(-c2ccccn2)nc1 [RU-Alkyne],IC50,"[1]; 4 h incubation in the dark, washed, 470 nm LED 6 min (6.9 ± 0.9 J cm-2), probit regression, n = 3, mean ± SEM, read-out: IC50 after light irradiation",> 100 µM
same,IC50,"[1]; 4 h incubation, not exposed to light, IC50 not reached with up to 100 µM, dark RU-SST n = 6, read-out: IC50 in the dark",> 100 µM
same,"colony growth, exposed or not exposed to light",[2],no comparable reduction in colony growth
same,% reduction of CFC,"[3]; AML#1, 6 min RU-Alk (light) vs dark RU-SST",22%
same,CFC/10^4 cells,"[3]; AML#1, 6 min RU-Alk (light)",78 CFC/10^4 cells
same,% reduction of CFC,"[3]; AML#1, Dark RU-Alk vs dark RU-SST",0%
same,CFC/10^4 cells,"[3]; AML#1, Dark RU-Alk",153 CFC/10^4 cells
same,% reduction of CFC,"[3]; AML#2, 6 min RU-Alk (light) vs dark RU-SST",17.7%
same,CFC/10^4 cells,"[3]; AML#2, 6 min RU-Alk (light)",208 CFC/10^4 cells
same,% reduction of CFC,"[3]; AML#2, Dark RU-Alk vs dark RU-SST",2.0%
same,CFC/10^4 cells,"[3]; AML#2, Dark RU-Alk",247 CFC/10^4 cells
same,% reduction of CFC,"[3]; AML#3, 6 min RU-Alk (light) vs dark RU-SST",0%
same,CFC/10^4 cells,"[3]; AML#3, 6 min RU-Alk (light)",211 CFC/10^4 cells
same,% reduction of CFC,"[3]; AML#3, Dark RU-Alk vs dark RU-SST",0%
same,CFC/10^4 cells,"[3]; AML#3, Dark RU-Alk",187 CFC/10^4 cells
same,% reduction of CFC,"[3]; AML#4, 6 min RU-Alk (light) vs dark RU-SST",48.9%
same,CFC/10^4 cells,"[3]; AML#4, 6 min RU-Alk (light)",24 CFC/10^4 cells
same,% reduction of CFC,"[3]; AML#4, Dark RU-Alk vs dark RU-SST",38.2%
same,CFC/10^4 cells,"[3]; AML#4, Dark RU-Alk",29 CFC/10^4 cells
same,% reduction of CFC,"[3]; AML#5, 6 min RU-Alk (light) vs dark RU-SST",41.5%
same,CFC/10^4 cells,"[3]; AML#5, 6 min RU-Alk (light)",69 CFC/10^4 cells
same,% reduction of CFC,"[3]; AML#5, Dark RU-Alk vs dark RU-SST",38.9%
same,CFC/10^4 cells,"[3]; AML#5, Dark RU-Alk",72 CFC/10^4 cells
same,% reduction of CFC,"[3]; AML#6, 6 min RU-Alk (light) vs dark RU-SST",58.7%
same,CFC/10^4 cells,"[3]; AML#6, 6 min RU-Alk (light)",29 CFC/10^4 cells
same,% reduction of CFC,"[3]; AML#6, Dark RU-Alk vs dark RU-SST",48.5%
same,CFC/10^4 cells,"[3]; AML#6, Dark RU-Alk",36 CFC/10^4 cells
same,"average reduction in CFC numbers, with exposure to light","[3]; RU-Alkyne with exposure to light, 6 primary AML samples, mean (SEM), not significant",31.4%
same,reduction in colony numbers compared to dark RU-SST,[4],18.59%
